Among the data in patent publication US20250243180A1, “TARGETED PROTEIN DEGRADATION” (Monte Rosa Therapeutics AG, priority 2023, published 2025) are EC50, Dmax and DC50 values, retold here.

Experiment [1] concerns the target CRBN-DDB1 (Homo sapiens (Human), UniProt Q96SW2). As to the kind of experiment: Compound binding to CRBN by HTRF assay. The procedure, abridged:
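Ki calculated via Cheng-Prusoff from geometric-mean EC50 values, after normalizing the HTRF ratio to lenalidomide (active) and DMSO (neutral) controls. Compounds (11 points, 1:3 steps) incubated 30 min at ambient temperature with CRBN-DDB1 2.5 nM, anti-His Tb cryptate and Cy5-thalidomide tracer 100 nM.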
On the technique in general: TR-FRET usually uses a lanthanide donor and a delayed reading to cut background.

Experiment [2] has as its target NEK7 (Homo sapiens (Human), UniProt Q8TDX7+Q96SW2). As to the kind of experiment: NEK7 NanoBiT degradation assay in Cal51 NEK7 NanoBiT cell line. It is filed as cell-based. The settings on record: Cal51 NEK7 NanoBiT cells, 24 hours; for Dmax: CAL-51. The procedure, abridged:
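EC50 comes from a 4-parameter fit of control-normalized luminescence. The luminescence reports HiBiT-NEK7 (endogenous knock-in) complemented by stably expressed LgBiT in Cal51 cells after 24 h compound exposure at 37 °C. Final concentrations ran 1 μM to 0.05 nM, with Endurazine substrate present in the medium throughout.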

Setting [3] is: NEK7 degradation, read-out: NanoBiT Dmax.
Setting [4] is: NEK7 degradation, read-out: NanoBiT DC50.

Structures can show the parent of a compound that is named as a salt. Where two headings read alike, the source gives them in different places. Where only a bound is given, the exact number is not on record here.

Chain of CRBN-DDB1 (Q96SW2 whole entry): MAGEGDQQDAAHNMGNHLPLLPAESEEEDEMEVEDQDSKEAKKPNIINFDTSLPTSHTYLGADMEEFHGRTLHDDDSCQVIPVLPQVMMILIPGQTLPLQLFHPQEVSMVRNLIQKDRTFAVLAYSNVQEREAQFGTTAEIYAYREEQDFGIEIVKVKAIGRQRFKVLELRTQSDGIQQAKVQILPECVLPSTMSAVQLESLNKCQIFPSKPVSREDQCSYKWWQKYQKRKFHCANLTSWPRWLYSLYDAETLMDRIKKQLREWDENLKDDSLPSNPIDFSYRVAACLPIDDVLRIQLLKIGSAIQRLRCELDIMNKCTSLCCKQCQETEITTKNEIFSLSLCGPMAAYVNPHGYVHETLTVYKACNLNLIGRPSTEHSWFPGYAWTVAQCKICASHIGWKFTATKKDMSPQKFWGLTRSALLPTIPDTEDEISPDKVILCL
Chain of CRBN-DDB1 (Q16531 whole entry partner): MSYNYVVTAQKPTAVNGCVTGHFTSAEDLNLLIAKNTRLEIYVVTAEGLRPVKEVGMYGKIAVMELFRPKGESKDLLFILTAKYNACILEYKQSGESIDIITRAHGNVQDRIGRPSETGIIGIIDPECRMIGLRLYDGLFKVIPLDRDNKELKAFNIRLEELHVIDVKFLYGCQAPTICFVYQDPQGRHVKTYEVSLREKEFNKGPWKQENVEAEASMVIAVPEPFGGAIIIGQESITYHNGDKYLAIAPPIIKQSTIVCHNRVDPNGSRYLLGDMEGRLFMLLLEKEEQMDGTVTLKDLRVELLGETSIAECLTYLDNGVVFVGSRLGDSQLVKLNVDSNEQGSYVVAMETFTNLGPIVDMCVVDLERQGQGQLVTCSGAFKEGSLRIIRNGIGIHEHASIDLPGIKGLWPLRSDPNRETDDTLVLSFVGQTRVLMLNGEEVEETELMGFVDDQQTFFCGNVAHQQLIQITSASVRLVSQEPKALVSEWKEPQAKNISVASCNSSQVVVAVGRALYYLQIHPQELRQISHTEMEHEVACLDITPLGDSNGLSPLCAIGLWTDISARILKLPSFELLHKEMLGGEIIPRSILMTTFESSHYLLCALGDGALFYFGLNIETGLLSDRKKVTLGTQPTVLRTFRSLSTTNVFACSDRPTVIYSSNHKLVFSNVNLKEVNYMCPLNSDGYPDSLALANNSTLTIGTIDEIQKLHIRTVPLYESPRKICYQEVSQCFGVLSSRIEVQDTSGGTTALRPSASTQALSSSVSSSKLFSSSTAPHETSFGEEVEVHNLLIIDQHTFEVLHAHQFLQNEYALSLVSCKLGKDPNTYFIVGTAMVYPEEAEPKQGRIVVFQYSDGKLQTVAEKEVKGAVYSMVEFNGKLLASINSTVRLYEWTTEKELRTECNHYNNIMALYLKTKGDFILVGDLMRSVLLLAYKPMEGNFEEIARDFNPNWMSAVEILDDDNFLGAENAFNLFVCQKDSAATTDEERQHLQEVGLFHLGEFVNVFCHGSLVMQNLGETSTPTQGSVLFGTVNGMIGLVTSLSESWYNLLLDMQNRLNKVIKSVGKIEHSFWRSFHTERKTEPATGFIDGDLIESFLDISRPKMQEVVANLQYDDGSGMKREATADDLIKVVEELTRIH
Chain of NEK7 (Q8TDX7 whole entry): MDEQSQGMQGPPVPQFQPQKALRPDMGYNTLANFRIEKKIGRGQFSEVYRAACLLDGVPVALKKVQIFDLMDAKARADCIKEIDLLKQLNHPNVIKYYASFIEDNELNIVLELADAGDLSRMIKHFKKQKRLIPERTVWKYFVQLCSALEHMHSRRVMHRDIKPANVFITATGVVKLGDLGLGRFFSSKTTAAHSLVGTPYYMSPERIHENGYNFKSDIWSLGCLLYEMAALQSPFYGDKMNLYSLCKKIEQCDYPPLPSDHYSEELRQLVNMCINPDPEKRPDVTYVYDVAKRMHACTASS
Chain of NEK7 (Q96SW2 whole entry): as the sequence (Q96SW2 whole entry) above
Chain of NEK7 (Q16531 2-1140 partner): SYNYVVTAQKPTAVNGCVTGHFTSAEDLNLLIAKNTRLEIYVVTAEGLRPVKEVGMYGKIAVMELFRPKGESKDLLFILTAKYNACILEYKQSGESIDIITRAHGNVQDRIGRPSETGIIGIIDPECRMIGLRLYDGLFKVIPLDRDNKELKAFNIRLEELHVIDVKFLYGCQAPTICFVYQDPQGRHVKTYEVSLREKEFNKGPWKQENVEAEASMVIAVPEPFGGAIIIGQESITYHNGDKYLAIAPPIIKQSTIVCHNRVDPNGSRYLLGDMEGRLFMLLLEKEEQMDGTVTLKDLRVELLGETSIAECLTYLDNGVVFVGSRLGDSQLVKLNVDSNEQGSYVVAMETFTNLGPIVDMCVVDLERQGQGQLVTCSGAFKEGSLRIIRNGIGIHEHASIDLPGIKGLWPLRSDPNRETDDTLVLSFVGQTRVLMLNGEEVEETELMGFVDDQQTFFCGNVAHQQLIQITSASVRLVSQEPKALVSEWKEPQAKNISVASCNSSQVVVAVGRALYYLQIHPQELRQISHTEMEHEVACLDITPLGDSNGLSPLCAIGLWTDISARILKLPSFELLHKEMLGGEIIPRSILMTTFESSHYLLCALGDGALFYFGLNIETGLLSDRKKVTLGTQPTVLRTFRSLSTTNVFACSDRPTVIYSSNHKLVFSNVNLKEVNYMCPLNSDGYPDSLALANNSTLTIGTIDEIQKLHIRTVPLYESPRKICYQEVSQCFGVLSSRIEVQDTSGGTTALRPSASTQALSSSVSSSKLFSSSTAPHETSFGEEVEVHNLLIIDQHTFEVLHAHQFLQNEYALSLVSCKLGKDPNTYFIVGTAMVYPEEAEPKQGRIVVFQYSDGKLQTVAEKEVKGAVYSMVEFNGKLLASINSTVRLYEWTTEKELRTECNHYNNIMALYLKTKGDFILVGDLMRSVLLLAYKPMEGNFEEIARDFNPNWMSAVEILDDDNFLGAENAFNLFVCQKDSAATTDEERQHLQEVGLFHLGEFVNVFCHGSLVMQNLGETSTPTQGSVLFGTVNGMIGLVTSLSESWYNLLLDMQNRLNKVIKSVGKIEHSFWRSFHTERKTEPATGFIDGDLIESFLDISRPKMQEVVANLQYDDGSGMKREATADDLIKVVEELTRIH

What is called EC50 is the concentration that produces a half-maximal response. One may read the Dmax as the largest share of the target that was removed. The term DC50 denotes the concentration giving 50% degradation. With `COc1nccc(C(C)(C)C(=O)NCc2cc(Cl)c(C3CCC(=O)NC3=O)c(Cl)c2)n1` (stereo not drawn) [Compound 46], the concentration for a half-maximal effect (EC50) was 50 nM in experiment [1] and at most 100 nM in experiment [1] (HTRF class, Cereblon binding). Besides, the Dmax was 71% in experiment [2] (read-out: NEK7 NanoBiT Dmax) and 50 to 75% in experiment [2] (setting [3]). Further, the DC50 in experiment [2] (read-out: NEK7 NanoBiT DC50) is 61 nM; in experiment [2] (setting [4]), at most 100 nM.

With `CC(C)(C(=O)NCc1cc(F)c(C2CCC(=O)NC2=O)c(Cl)c1)c1nc2ccccc2o1` (stereo not drawn) [Compound 249], the concentration for a half-maximal effect (EC50) was 70 nM in experiment [1] and at most 100 nM in experiment [1] (HTRF class, Cereblon binding). The figures for the Dmax in experiment [2] (read-out: NEK7 NanoBiT Dmax) and in experiment [2] (setting [3]) were 87% and over 75%, respectively. In addition, the DC50 in experiment [2] (read-out: NEK7 NanoBiT DC50) was 7 nM; in experiment [2] (setting [4]) it was at most 100 nM.

With `CC(C)(C(=O)NCc1cc(Cl)c(C2CCC(=O)NC2=O)c(Cl)c1)c1ccc(S(N)(=O)=O)cc1F` (stereo not drawn) [Compound 43], the EC50 is 40 nM in experiment [1] and at most 100 nM in experiment [1] (HTRF class, Cereblon binding). The maximal degradation (Dmax) was 97% in experiment [2] (read-out: NEK7 NanoBiT Dmax) and over 75% in experiment [2] (setting [3]). Further, the DC50 was 1 nM in experiment [2] (read-out: NEK7 NanoBiT DC50) and at most 100 nM in experiment [2] (setting [4]).

For the molecule `CC(C)(C(=O)NCc1cc(Cl)c(C2CCC(=O)NC2=O)c(Cl)c1)c1ccc(C(N)=O)cc1F` (stereo not drawn) [Compound 51], the EC50 is 70 nM in experiment [1] and at most 100 nM in experiment [1] (HTRF class, Cereblon binding). Further, the greatest degradation seen (Dmax) was 96% in experiment [2] (read-out: NEK7 NanoBiT Dmax) and over 75% in experiment [2] (setting [3]). In addition, the DC50 in experiment [2] (read-out: NEK7 NanoBiT DC50) was 1 nM; in experiment [2] (setting [4]), at most 100 nM.

For `Cc1ccc(C(C)(C)C(=O)NCc2cc(F)c(C3CCC(=O)NC3=O)c(Cl)c2)nn1` (stereo not drawn) [Compound 275], the EC50 was 210 nM in experiment [1] and 100 to 1000 nM in experiment [1] (HTRF class, Cereblon binding). The maximal degradation (Dmax) in experiment [2] (read-out: NEK7 NanoBiT Dmax) is 61%; in experiment [2] (setting [3]) it was 50 to 75%. In addition, the DC50 in experiment [2] (read-out: NEK7 NanoBiT DC50) is 190 nM; in experiment [2] (setting [4]), 100 to 1000 nM.

Take `CC(C)(C(=O)NCc1cc(Cl)c(C2CCC(=O)NC2=O)c(Cl)c1)N1Cc2ccccc2C1` (stereo not drawn) [Compound 170, N-(3,5-dichloro-4-(2,6-dioxopiperidin-3-yl)benzyl)-2-(isoindolin-2-yl)-2-methylpropanamide]: the EC50 in experiment [1] was 180 nM; in experiment [1] (HTRF class, Cereblon binding) it was 100 to 1000 nM. Further, the Dmax in experiment [2] (read-out: NEK7 NanoBiT Dmax) is 73%; in experiment [2] (setting [3]), 50 to 75%. The DC50 in experiment [2] (read-out: NEK7 NanoBiT DC50) was 55 nM; in experiment [2] (setting [4]) it was at most 100 nM.

Regarding `CC(C)(C(=O)NCc1cc(Cl)c(C2CCC(=O)NC2=O)c(Cl)c1)N1CCc2ccccc21` (stereo not drawn) [Compound 166, N-(3,5-dichloro-4-(2,6-dioxopiperidin-3-yl)benzyl)-2-(indolin-1-yl)-2-methylpropanamide], the concentration for a half-maximal effect (EC50) in experiment [1] was 90 nM; in experiment [1] (HTRF class, Cereblon binding), at most 100 nM. For the same molecule, the Dmax in experiment [2] (read-out: NEK7 NanoBiT Dmax) is 56%; in experiment [2] (setting [3]) it was 50 to 75%. The 50% degradation concentration (DC50) in experiment [2] (read-out: NEK7 NanoBiT DC50) is 203 nM; in experiment [2] (setting [4]), 100 to 1000 nM.

`Cc1cnc(C(C)(C)C(=O)NCc2cc(Cl)c(C3CCC(=O)NC3=O)c(Cl)c2)o1` (stereo not drawn) [Compound 163]: the concentration giving a half-maximal response (EC50) in experiment [1] is 250 nM; in experiment [1] (HTRF class, Cereblon binding), 100 to 1000 nM. In addition, the values for the maximal degradation (Dmax) in experiment [2] (read-out: NEK7 NanoBiT Dmax) and in experiment [2] (setting [3]) were 80% and over 75%, respectively. The values for the DC50 in experiment [2] (read-out: NEK7 NanoBiT DC50) and in experiment [2] (setting [4]) were 18 nM and at most 100 nM, respectively.

Turning to `Cn1ncc2ccc(C3(C(=O)NCc4cc(Cl)c(C5CCC(=O)NC5=O)c(Cl)c4)CCOCC3)cc21` (stereo not drawn) [Compound 133], the EC50 in experiment [1] was 30 nM; in experiment [1] (HTRF class, Cereblon binding) it was at most 100 nM. Further, the greatest degradation seen (Dmax) in experiment [2] (read-out: NEK7 NanoBiT Dmax) is 94%; in experiment [2] (setting [3]), over 75%. Besides, the DC50 in experiment [2] (read-out: NEK7 NanoBiT DC50) is 2 nM; in experiment [2] (setting [4]) it was at most 100 nM.

Turning to `CC(C)(C(=O)NCc1cc(Cl)c(C2CCC(=O)NC2=O)c(Cl)c1)c1cc(F)c(S(N)(=O)=O)c(F)c1` (stereo not drawn) [Compound 36, N-(3,5-dichloro-4-(2,6-dioxopiperidin-3-yl)benzyl)-2-(3,5-difluoro-4-sulfamoylphenyl)-2-methylpropanamide], the EC50 in experiment [1] was 80 nM; in experiment [1] (HTRF class, Cereblon binding), at most 100 nM. For the same molecule, the greatest degradation seen (Dmax) was 95% in experiment [2] (read-out: NEK7 NanoBiT Dmax) and over 75% in experiment [2] (setting [3]). In addition, the DC50 in experiment [2] (read-out: NEK7 NanoBiT DC50) was 5 nM; in experiment [2] (setting [4]), at most 100 nM.

As to `CN1CCC(C(=O)NCc2cc(Cl)c(C3CCC(=O)NC3=O)c(Cl)c2)(c2ccc(F)cc2)CC1` (stereo not drawn) [Compound 135, N-(3,5-dichloro-4-(2,6-dioxopiperidin-3-yl)benzyl)-4-(4-fluorophenyl)-1-methylpiperidine-4-carboxamide formate], the EC50 is 20 nM in experiment [1] and at most 100 nM in experiment [1] (HTRF class, Cereblon binding). The Dmax in experiment [2] (read-out: NEK7 NanoBiT Dmax) is 71%; in experiment [2] (setting [3]) it was 50 to 75%. For the same molecule, the DC50 is 16 nM in experiment [2] (read-out: NEK7 NanoBiT DC50) and at most 100 nM in experiment [2] (setting [4]).

With `COc1ccc(C(C)(C)C(=O)NCc2cc(F)c(C3CCC(=O)NC3=O)c(Cl)c2)nc1` (stereo not drawn) [Compound 261], the EC50 is 90 nM in experiment [1] and at most 100 nM in experiment [1] (HTRF class, Cereblon binding). Also, the figures for the maximal degradation (Dmax) in experiment [2] (read-out: NEK7 NanoBiT Dmax) and in experiment [2] (setting [3]) were 87% and over 75%, respectively. The results for the DC50 in experiment [2] (read-out: NEK7 NanoBiT DC50) and in experiment [2] (setting [4]) were 12 nM and at most 100 nM, respectively.

Turning to `O=C1CCC(c2c(Cl)cc(CNC(=O)C3(c4ccnc(F)c4)CC(F)(F)C3)cc2Cl)C(=O)N1` (stereo not drawn) [Compound 136, N-(3,5-dichloro-4-(2,6-dioxopiperidin-3-yl)benzyl)-3,3-difluoro-1-(2-fluoropyridin-4-yl)cyclobutane-1-carboxamide], the half-maximal effective concentration (EC50) in experiment [1] was 60 nM; in experiment [1] (HTRF class, Cereblon binding), at most 100 nM. Moreover, the values for the greatest degradation seen (Dmax) in experiment [2] (read-out: NEK7 NanoBiT Dmax) and in experiment [2] (setting [3]) were 65% and 50 to 75%, respectively. Besides, the values for the 50% degradation concentration (DC50) in experiment [2] (read-out: NEK7 NanoBiT DC50) and in experiment [2] (setting [4]) were 63 nM and at most 100 nM, respectively.

Turning to `CC(C)(O)c1cnc(C(C)(C)C(=O)NCc2cc(Cl)c(C3CCC(=O)NC3=O)c(Cl)c2)nc1` (stereo not drawn) [Compound 147], the concentration giving a half-maximal response (EC50) in experiment [1] was 550 nM; in experiment [1] (HTRF class, Cereblon binding), 100 to 1000 nM. The Dmax is 52% in experiment [2] (read-out: NEK7 NanoBiT Dmax) and 50 to 75% in experiment [2] (setting [3]). The half-maximal degradation concentration (DC50) was 776 nM in experiment [2] (read-out: NEK7 NanoBiT DC50) and 100 to 1000 nM in experiment [2] (setting [4]).

Take `CC(C)(C(=O)NCc1cc(Cl)c(C2CCC(=O)NC2=O)c(Cl)c1)c1ccc2[nH]ccc2c1` (stereo not drawn) [Compound 91]: the half-maximal effective concentration (EC50) in experiment [1] is 40 nM; in experiment [1] (HTRF class, Cereblon binding) it was at most 100 nM. For the same molecule, the greatest degradation seen (Dmax) was 97% in experiment [2] (read-out: NEK7 NanoBiT Dmax) and over 75% in experiment [2] (setting [3]). For the same molecule, the 50% degradation concentration (DC50) in experiment [2] (read-out: NEK7 NanoBiT DC50) is 0.4 nM; in experiment [2] (setting [4]), at most 100 nM.

Turning to `CC(C)(C(=O)NCc1cc(Cl)c(C2CCC(=O)NC2=O)c(Cl)c1)c1ncoc1C(F)(F)F` (stereo not drawn) [Compound 199], the EC50 in experiment [1] is 140 nM; in experiment [1] (HTRF class, Cereblon binding), 100 to 1000 nM. For the same molecule, the Dmax was 67% in experiment [2] (read-out: NEK7 NanoBiT Dmax) and 50 to 75% in experiment [2] (setting [3]). The half-maximal degradation concentration (DC50) in experiment [2] (read-out: NEK7 NanoBiT DC50) was 99 nM; in experiment [2] (setting [4]), at most 100 nM.

Take `O=C1CC(C(=O)NCc2cc(Cl)c(C3CCC(=O)NC3=O)c(Cl)c2)(c2ccc(F)cc2)C1` (stereo not drawn) [Compound 137, N-(3,5-dichloro-4-(2,6-dioxopiperidin-3-yl)benzyl)-1-(4-fluorophenyl)-3-oxocyclobutane-1-carboxamide]: the EC50 in experiment [1] was 50 nM; in experiment [1] (HTRF class, Cereblon binding), at most 100 nM. For the same molecule, the greatest degradation seen (Dmax) in experiment [2] (read-out: NEK7 NanoBiT Dmax) was 97%; in experiment [2] (setting [3]), over 75%. Further, the figures for the 50% degradation concentration (DC50) in experiment [2] (read-out: NEK7 NanoBiT DC50) and in experiment [2] (setting [4]) were 1 nM and at most 100 nM, respectively.

On to `CC(C)(C(=O)NCc1cc(Cl)c(C2CCC(=O)NC2=O)c(Cl)c1)c1ccc(C#N)cn1` (stereo not drawn) [Compound 15, 2-(5-cyanopyridin-2-yl)-N-(3,5-dichloro-4-(2,6-dioxopiperidin-3-yl)benzyl)-2-methylpropanamide], for which the half-maximal effective concentration (EC50) was 120 nM in experiment [1] and 100 to 1000 nM in experiment [1] (HTRF class, Cereblon binding). Further, the Dmax is 95% in experiment [2] (read-out: NEK7 NanoBiT Dmax) and over 75% in experiment [2] (setting [3]). Further, the half-maximal degradation concentration (DC50) was 4 nM in experiment [2] (read-out: NEK7 NanoBiT DC50) and at most 100 nM in experiment [2] (setting [4]).
